According to article PMC9333195, “Discovery of 2-Phenylquinoline-4-Carboxylic Acid Derivatives as Novel Histone Deacetylase Inhibitors” (Frontiers in Chemistry, 2022):

Legend:
K562 cells = test: CCK-8 antiproliferative assay, K562; conditions: for inhibition at 2 µM: Homo sapiens, K562, read-out: K562 percentage inhibitory rate; for K562 percentage inhibitory rate: 2.0 µM compound, K562 cells, CCK-8, mean of three experiments
Method: The proliferation of cancer cells was tested by CCK-8 assay. Briefly, cells were seeded in a 96-well plate with about 5 × 10^3 cells in each well. In the K652 cell screening, cells were treated with 2.0 μM of tested compounds. […] The light absorbance at 450 nm was measured by using an Opsys microplate reader (Dynex Technologies, Chantilly, VA, United States).

[1] = test system: Hela nucleus extract containing a mixture of HDAC isoforms; test: In vitro HDAC inhibitory assay, HeLa cell nuclear extract screening at 2 µM; type: biochemical; conditions: 2.0 µM compound, mean of three experiments
Method: The HDAC enzyme inhibitory activities of synthesized compounds were evaluated against Hela nucleus extract containing a mixture of HDAC isoforms. Percentage inhibitory rate (PIR) was calculated to determine the activity of tested compounds (Table 1).
All HDAC enzymes were purchased from BPS Bioscience. […] The reaction was terminated by adding 100 μl of imaging agent containing trypsin and trichostatin A (TSA). After standing for 20 min, the fluorescence intensity was measured at the excitation and emission wavelengths of 360 and 460 nm with a microplate reader. The inhibition rate was calculated from the fluorescence intensity readings of the test wells relative to the control wells, and the IC50 curve and value were determined by GraphPad Prism 6.0 software.

melting point [°C]	Compound	inhibition at 2 µM (K562 cells) [%]	HDACs percentage inhibitory rate (PIR) [1] [%]	K562 percentage inhibitory rate (K562 cells) [%]
212.7 to 213.9	O=C(NO)c1ccc(N2CCN(C(=O)c3cc(-c4ccc(C(F)(F)F)cc4)nc4ccccc34)CC2)cc1 [Compound D7, N-Hydroxy-4-(4-(2-(4-(Trifluoromethyl)Phenyl)Quinoline-4-Carbonyl)Piperazin-1-yl)Benzamide]	40.3 ± 1.2	52.60 ± 2.37	
228.1 to 229.2	O=C(NO)c1ccc(N2CCN(C(=O)c3cc(-c4ccc(Cl)cc4)nc4ccccc34)CC2)cc1 [Compound D3, 4-(4-(2-(4-Chlorophenyl)Quinoline-4-Carbonyl)Piperazin-1-yl)-N-Hydroxybenzamide]	46.4 ± 0.53	49.43 ± 3.73	
	4-(4-(2-(4-Fluoro-3-Methylphenyl)Quinoline-4-Carbonyl)Piperazin-1-yl)-N-Hydroxybenzamide [Compound D17]		47.41 ± 1.03	41.91 ± 0.13
221.8 to 222	O=C(NO)c1ccc(N2CCN(C(=O)c3cc(-c4cc(F)cc(F)c4)nc4ccccc34)CC2)cc1 [Compound D12, 4-(4-(2-(3,5-Difluorophenyl)Quinoline-4-Carbonyl)Piperazin-1-yl)-N-Hydroxybenzamide]	51.8 ± 1.35	74.91 ± 0.35	
213.8 to 214.8	O=C(NO)c1ccc(N2CCN(C(=O)c3cc(-c4ccccc4)nc4ccccc34)CC2)cc1 [Compound D1, N-Hydroxy-4-(4-(2-Phenylquinoline-4-Carbonyl)Piperazin-1-yl)Benzamide]	46.58 ± 0.35	57.96 ± 0.43	
200.6 to 201.2	CN(C)c1ccc(-c2cc(C(=O)N3CCN(c4ccc(C(=O)NO)cc4)CC3)c3ccccc3n2)cc1 [Compound D18, 4-(4-(2-(4-(Dimethylamino)Phenyl)Quinoline-4-Carbonyl)Piperazin-1-yl)-N-Hydroxybenzamide]	48.3 ± 0.31	48.37 ± 0.35	
184.3 to 186.8	COc1ccc(-c2cc(C(=O)N3CCN(c4ccc(C(=O)NO)cc4)CC3)c3ccccc3n2)cc1 [Compound D6, N-Hydroxy-4-(4-(2-(4-Methoxyphenyl)Quinoline-4-Carbonyl)Piperazin-1-yl)Benzamide]	51.55 ± 0.25	52.31 ± 3.09	
163.5 to 164.8	O=C(NO)c1ccc(N2CCN(C(=O)c3cc(-c4ccc(F)cc4)nc4ccccc34)CC2)cc1 [Compound D4, 4-(4-(2-(4-Fluorophenyl)Quinoline-4-Carbonyl)Piperazin-1-yl)-N-Hydroxybenzamide]	32.43 ± 0.2	47.79 ± 1.34	
224 to 224.9	COc1ccccc1-c1cc(C(=O)N2CCN(c3ccc(C(=O)NO)cc3)CC2)c2ccccc2n1 [Compound D13, N-Hydroxy-4-(4-(2-(2-Methoxyphenyl)Quinoline-4-Carbonyl)Piperazin-1-yl)Benzamide]	43.81 ± 0.26	54.24 ± 0.18	
170.5 to 170.8	O=C(NO)c1ccc(N2CCN(C(=O)c3cc(-c4ccc(NC(=O)c5cccc(Br)c5)cc4)nc4ccccc34)CC2)cc1 [Compound D21, 3-Bromo-N-(4-(4-(4-(4-(Hydroxycarbamoyl)Phenyl)Piperazine-1-Carbonyl)Quinolin-2-yl)Phenyl)Benzamide]	47.6 ± 0.92	50.26 ± 1.41	
	N-Hydroxy-4-(4-(2-(o-Tolyl)Quinoline-4-Carbonyl)Piperazin-1-yl)Benzamide [Compound D16]		49.04 ± 31.22	15.26 ± 0.33
199.2 to 199.7	Cc1cccc(-c2cc(C(=O)N3CCN(c4ccc(C(=O)NO)cc4)CC3)c3ccccc3n2)c1 [Compound D9, N-Hydroxy-4-(4-(2-(m-Tolyl)Quinoline-4-Carbonyl)Piperazin-1-yl)Benzamide]	45.81 ± 0.33	49.33 ± 0.82	
177.2 to 179.6	CSc1ccc(-c2cc(C(=O)N3CCN(c4ccc(C(=O)NO)cc4)CC3)c3ccccc3n2)cc1 [Compound D5, N-Hydroxy-4-(4-(2-(4-(Methylthio)Phenyl)Quinoline-4-Carbonyl)Piperazin-1-yl)Benzamide]	47.4 ± 1.11	50.93 ± 0.93	
225 to 226.3	O=C(NO)c1ccc(N2CCN(C(=O)c3cc(-c4cccc(F)c4)nc4ccccc34)CC2)cc1 [Compound D15, 4-(4-(2-(3-Fluorophenyl)Quinoline-4-Carbonyl)Piperazin-1-yl)-N-Hydroxybenzamide]	26.2 ± 0.62	58.80 ± 2.95	
231.7 to 232.8	O=C(NO)c1ccc(N2CCN(C(=O)c3cc(-c4ccc(Br)cc4)nc4ccccc34)CC2)cc1 [Compound D2, 4-(4-(2-(4-Bromophenyl)Quinoline-4-Carbonyl)Piperazin-1-yl)-N-Hydroxybenzamide]	48.8 ± 1.32	59.50 ± 0.35	
	3,5-Difluoro-N-(4-(4-(4-(4-(Hydroxycarbamoyl)Phenyl)Piperazine-1-Carbonyl)Quinolin-2-yl)Phenyl)Benzamide [Compound D25]		54.74 ± 1.41	37.64 ± 0.13
235 to 236.4	O=C(NO)c1ccc(N2CCN(C(=O)c3cc(-c4ccccc4Cl)nc4ccccc34)CC2)cc1 [Compound D14, 4-(4-(2-(2-Chlorophenyl)Quinoline-4-Carbonyl)Piperazin-1-yl)-N-Hydroxybenzamide]	48.3 ± 1.02	49.74 ± 2.06	
207.1 to 208.9	O=C(NO)c1ccc(N2CCN(C(=O)c3cc(-c4cccc(Cl)c4)nc4ccccc34)CC2)cc1 [Compound D8, 4-(4-(2-(3-Chlorophenyl)Quinoline-4-Carbonyl)Piperazin-1-yl)-N-Hydroxybenzamide]	42.9 ± 1.02	51.81 ± 4.07	
173.9 to 174.8	O=C(NO)c1ccc(N2CCN(C(=O)c3cc(-c4ccc(NC(=O)c5ccccc5)cc4)nc4ccccc34)CC2)cc1 [Compound D19, 4-(4-(2-(4-Benzamidophenyl)Quinoline-4-Carbonyl)Piperazin-1-yl)-N-Hydroxybenzamide]	59.19 ± 0.35	45.31 ± 0.68	
178.3 to 180.3	O=C(NO)c1ccc(N2CCN(C(=O)c3cc(-c4ccc(NC(=O)c5ccc(F)cc5)cc4)nc4ccccc34)CC2)cc1 [Compound D20, 4-Fluoro-N-(4-(4-(4-(4-(Hydroxycarbamoyl)Phenyl)Piperazine-1-Carbonyl)Quinolin-2-yl)Phenyl)Benzamide]	45.9 ± 1.34	48.46 ± 0.68	
196.9 to 198	O=C(NO)c1ccc(N2CCN(C(=O)c3cc(-c4cc(F)ccc4F)nc4ccccc34)CC2)cc1 [Compound D27, 4-(4-(2-(2,5-Difluorophenyl)Quinoline-4-Carbonyl)Piperazin-1-yl)-N-Hydroxybenzamide]	63.79 ± 0.13	59.30 ± 0.74	
163.5 to 164.2	O=C(NO)c1ccc(N2CCN(C(=O)c3cc(-c4ccc(NC(=O)c5ccccc5F)cc4)nc4ccccc34)CC2)cc1 [Compound D22, 2-Fluoro-N-(4-(4-(4-(4-(Hydroxycarbamoyl)Phenyl)Piperazine-1-Carbonyl)Quinolin-2-yl)Phenyl)Benzamide]	65.1 ± 1.34	56.86 ± 1.79	
179.8 to 180.9	COc1cccc(-c2cc(C(=O)N3CCN(c4ccc(C(=O)NO)cc4)CC3)c3ccccc3n2)c1 [Compound D11, N-Hydroxy-4-(4-(2-(3-Methoxyphenyl)Quinoline-4-Carbonyl)Piperazin-1-yl)Benzamide]	46.09 ± 0.43	63.49 ± 4.61	
175.3 to 176.3	O=C(NO)c1ccc(N2CCN(C(=O)c3cc(-c4ccc(NC(=O)c5ccc(F)cc5F)cc4)nc4ccccc34)CC2)cc1 [Compound D24, 2,4-Difluoro-N-(4-(4-(4-(4-(Hydroxycarbamoyl)Phenyl)Piperazine-1-Carbonyl)Quinolin-2-yl)Phenyl)Benzamide]	31.1 ± 0.54	66.16 ± 1.57	
172.5 to 173.3	O=C(NO)c1ccc(N2CCN(C(=O)c3cc(-c4ccccc4F)nc4ccccc34)CC2)cc1 [Compound D10, 4-(4-(2-(2-Fluorophenyl)Quinoline-4-Carbonyl)Piperazin-1-yl)-N-Hydroxybenzamide]	40.9 ± 1.22	58.52 ± 0.64	
232.6 to 232.9	O=C(NO)c1ccc(N2CCN(C(=O)c3cc(-c4ccc(NC(=O)c5cccc(F)c5)cc4)nc4ccccc34)CC2)cc1 [Compound D26, 3-Fluoro-N-(4-(4-(4-(4-(Hydroxycarbamoyl)Phenyl)Piperazine-1-Carbonyl)Quinolin-2-yl)Phenyl)Benzamide]	43.1 ± 0.64	49.99 ± 0.32	
